Assay results as given in PMC11093668 (Clinical Infectious Diseases: An Official Publication of …, 2023).
Like-named read-outs stand apart in the source and are kept apart here.

Legend:
HIV [1] = tested on: HIV; set-up: method as in ref 25 = [25]; 25 Fda, Cder . Reyataz (atazanavir sulfate) capsules label. Available at: www.fda.gov/medwatch . Accessed 17 September 2019.; conditions: primary target minimum concentration; cited from earlier work
HIV [2] = tested on: HIV; set-up: method as in ref 26 = [26]; 26 Gonzalez de Requena D , Bonora S , Canta F , et al Atazanavir trough is associated with efficacy and safety: definition of therapeutic range. In: 6th Intenational Workshop on Clinical Pharmacology; conditions: secondary target; cited from earlier work
clinical = conditions: human, in vivo, geometric mean (90% CI)
[3] = human, in vivo
[4] = atazanavir co-administration; cited from earlier work

Which “protein-adjusted IC90 (PA-IC90)” value (HIV [1]) does the source give for COC(=O)N[C@H](C(=O)N[C@@H](Cc1ccccc1)[C@@H](O)CN(Cc1ccc(-c2ccccn2)cc1)NC(=O)[C@@H](NC(=O)OC)C(C)(C)C)C(C)(C)C [Atazanavir, atazanavir] here?
Its value is 0.014 µg/mL.

And the “minimum effective concentration (MEC)” value (HIV [2])?
The value was 0.15 mg/L.

What about the Cmax (clinical) of the same molecule?
Its Cmax is 4600 ng/mL.

And the “AUC24, geometric mean (90% CI)” value [3]?
Its value is 40 (35–46) mg·h/L.

And the “Clearance/F, geometric mean (90% CI)” value [3]?
The value was 7.5 (6.6–8.7) L/h.

What about the “T1/2, geometric mean (90% CI)” value [3] of the same molecule?
Its value is 11 (10–12) h.

What about the “Ctau, geometric mean ratio (90% CI)” value ([3]; 12 h) of the same molecule?
Its value is 0.98 (0.81–1.2).

What about the “Ctau, geometric mean (90% CI)” value ([3]; 24 h) of the same molecule?
Its value is 0.59 (0.48–0.74) mg/L.

What about the “Ctau, geometric mean ratio (90% CI)” value ([3]; 24 h) of the same molecule?
The value was 0.039 (0.032– 0.048).

What about the “lowest Ctau, fold higher than PA-IC90” value ([3]; 24 h) of the same molecule?
The value was 12.7 fold.

And the “proportion of Ctau below the limit of quantification (0.03 mg/L)” value ([3]; 24 h)?
Its value is 65%.

For CO[C@H]1/C=C/O[C@@]2(C)Oc3c(C)c(O)c4c(O)c(c(/C=N/N5CCN(C)CC5)c(O)c4c3C2=O)NC(=O)/C(C)=C\C=C\[C@H](C)[C@H](O)[C@@H](C)[C@@H](O)[C@@H](C)[C@H](OC(C)=O)[C@@H]1C [Rifampicin, rifampicin], which “Ctau higher with dose escalated ATV/r” value ([3]; 24 h) is on record?
The value was 40%.

With CC(C)c1nc(CN(C)C(=O)N[C@H](C(=O)N[C@@H](Cc2ccccc2)C[C@H](O)[C@H](Cc2ccccc2)NC(=O)OCc2cncs2)C(C)C)cs1 [Ritonavir, ritonavir] as the molecule, how does the “AUC24, geometric mean (90% CI)” value [3] read?
The value was 9.5 (8.4 - 11) mg·h/L.

And the “Clearance/F, geometric mean (90% CI)” value [3]?
Its value is 11 (9.34 - 11.9 L/h.

And the “T1/2, geometric mean (90% CI)” value [3]?
Its value is 5.7 (5.4- 6.1) h.

And the “Ctau, geometric mean (90% CI)” value ([3]; 24 h)?
The value was 0.068 (0.060- 0.077) mg/L.

What does the source list for C[C@@H]1CCO[C@H]2Cn3cc(C(=O)NCc4ccc(F)cc4F)c(=O)c(O)c3C(=O)N12 [Dolutegravir, dolutegravir]?
AUC24 (exposure) higher with dose escalation of ATV/r [3]: 1.6 fold; Ctau higher with dose escalation of ATV/r ([3]; 12 h): 2 folds; increase in dolutegravir exposure [4]: 91%
